In patent US10131639B2, “Formulations of 2-(tert-butylamino)-4-((1R,3R,4R)-3-hydroxy-4methylcyclohexylamino)-pyrimidine-5-carboxamide” (Signal Pharmaceuticals, LLC, priority 2014, dated 2018):

Assays:
[1] = Solid state chemical stability under stress conditions (HPLC with UV detection); details: for Chemical stability (open vial, 2 weeks) / Chemical stability (open vial, 2 weeks): degradation: HPLC/UV; for % Remaining at 80° C. / % Remaining at 80° C./75% RH: solid state, open vial, 2 weeks, HPLC with UV detection
Description: Six vials were prepared for each salt. Two samples were stored in the refrigerator. The other four samples in open vials were stored under 4 stress conditions, respectively. […] One set of samples stored in the refrigerator were used to prepare the stock and standard solutions.

[2] = Solid state physical stability under stress conditions (XRPD); format: physicochemical; details: XRPD vs initial material
Description: A portion of the sample was loaded to a 4 mL clear glass vial. Four samples were prepared for each salt. The vials (open) were stored under 4 different stress conditions, respectively.

[3] = Hygroscopicity by dynamic vapor sorption (DVS); format: physicochemical; details: for Hygroscopicity (80% RH, 25° C., cycle 1 sorption): DVS water uptake, L-tartrate: hydrate, difference between 20% RH and 80% RH
Text: DVS: A portion of the sample was loaded into a quartz sample holder and tested using DVS-Advantage system in two continuous adsorption/desorption cycles. The settings are described as follows:
Adsorption/desorption cycle 1: 50 to 95 to 0% RH;
Adsorption/desorption cycle 2: 0 to 95 to 0% RH;

[4] = Hygroscopicity by dynamic vapor sorption (DVS); format: physicochemical; details: 25° C., after pre-heating at 50° C. for 3 hours
[5] = Solubility in water and SGF (24 hours, ambient temperature, HPLC/UV); format: physicochemical; details: for pH of the solubility sample in SGF / pH of the solubility sample in water: measured after 24 hours shaking; for Solubility in SGF (equiv. to free base): simulated gastric fluid without pepsin; for Solubility in SGF (equiv. to free base) / Solubility in water (equiv. to free base): ambient temperature, 24 hours
Description: Solubility in Water and SGF: A portion of the sample was weighed into a 2 mL clear HPLC vial. […] The sample was removed from the shaker and pH measurement was performed using a calibrated pH meter. Then a portion of the sample was filtered using […] Nylon-membraned centrifuge tube filter at 14000 RPM for 5 min. The filtrate was analyzed using HPLC/UV with appropriate dilution. The filtered solid residues were analyzed using XRPD.
For solubility in SGF, the samples were prepared and assayed in the same procedures as mentioned above.

[6] = 80° C./75% RH, listed as H2SO4 salt

Row | SMILES | Chemical stability (open vial, 2 weeks) ([1]; 80° C./75% RH) | Chemical stability (open vial, 2 weeks) ([1]; 80° C.) | % Remaining at 80° C. ([1]; 80° C.) [%] | % Remaining at 80° C./75% RH ([1]; 80° C./75% RH) [%] | Physical stability (open vial, 2 weeks) ([2]; 80° C./75% RH) | Physical stability (open vial, 2 weeks) ([2]; 80° C.) | Hygroscopicity (80% RH, 25° C., cycle 1 sorption) [3] [%] | hygroscopicity (sorption/desorption, in words) ([3]; DVS, 25° C.) | pH of the solubility sample in SGF [5] | pH of the solubility sample in water [5] | Solubility in SGF (equiv. to free base) [5] [µg/mL] | Solubility in water (equiv. to free base) [5] [µg/mL] | further results
1 | O=C(O)[C@H](O)[C@@H](O)C(=O)O [L-tartrate] | no change | no change | 98.7 | 98.3 | no change | no change | 0.81 | – | – | – | – | – | Physical stability (open vial, 2 weeks) ([2]; 80° C./75% RH, listed as L-tartrate salt): physically stable; Physical stability (open vial, 2 weeks) ([2]; 80° C., listed as L-tartrate salt): physically stable; hygroscopicity (sorption/desorption, in words) ([3]; DVS, 25° C., listed as L-tartrate salt): slightly hygroscopic; hygroscopicity (sorption/desorption, in words) ([3]; DVS, 25° C., listed as L-tartrate salt (hydrate)): not hygroscopic; Cycle 1 sorption at 20% RH [4]: 4.32%
2 | C[C@@H]1CC[C@@H](Nc2nc(NC(C)(C)C)ncc2C(N)=O)C[C@H]1O.O=C(O)C[C@H](O)C(=O)O [L-malate] | not chemically stable | not chemically stable | 87.7 | 92.9 | form change | form change | 5.60 | hygroscopic | (pH 1.54) | (pH 4.07) | 8922 | 4496 | Chemical stability (open vial, 2 weeks): degradation ([1]; 80° C./75% RH): ~7% degradation; Chemical stability (open vial, 2 weeks): degradation ([1]; 80° C.): ~12% degradation; Physical stability (open vial, 2 weeks) ([2]; 80° C./75% RH, listed as L-malate salt): not physically stable; Physical stability (open vial, 2 weeks) ([2]; 80° C., listed as L-malate salt): not physically stable
3 | C[C@@H]1CC[C@@H](Nc2nc(NC(C)(C)C)ncc2C(N)=O)C[C@H]1O.O=P(O)(O)O [Compound H3PO4] | no change | no change | 101.1 | 99.9 | no change | no change | 0.48 | not hygroscopic | – | – | – | – | Physical stability (open vial, 2 weeks) ([2]; 80° C./75% RH, listed as H3PO4 salt): physically stable; Physical stability (open vial, 2 weeks) ([2]; 80° C., listed as H3PO4 salt): physically stable
4 | CC(O)C(=O)O.CC1CCC(Nc2nc(NC(C)(C)C)ncc2C(N)=O)CC1O [L-lactate] | no change | no change | 100.4 | 100.5 | form change | form change | 2.65 | moderately hygroscopic | – | – | – | – | Physical stability (open vial, 2 weeks) ([2]; 80° C./75% RH, listed as L-lactate salt form 2): not physically stable; Physical stability (open vial, 2 weeks) ([2]; 80° C., listed as L-lactate salt form 2): not physically stable
5 | C[C@@H]1CC[C@@H](Nc2nc(NC(C)(C)C)ncc2C(N)=O)C[C@H]1O.O=S(=O)(O)O [Compound H2SO4] | no change | no change | 100.0 | 100.1 | form change | no change | 6.13 | hygroscopic | (pH 1.03) | (pH 1.69) | 3187 | 2647 | Chemical stability (open vial, 2 weeks) [1, 6]: stable; Chemical stability (open vial, 2 weeks) ([1]; 80° C., listed as H2SO4 salt): stable; Physical stability (open vial, 2 weeks) [2, 6]: not stable; Physical stability (open vial, 2 weeks) ([2]; 80° C., listed as H2SO4 salt): physically stable
6 | CC1CCC(Nc2nc(NC(C)(C)C)ncc2C(N)=O)CC1O.Cl (stereo not shown) [HCl] | no change | no change | 101.2 | 100.4 | form change | no change | 5.21 | hygroscopic | (pH 1.19) | (pH 3.87) | 6058 | 10761 | Physical stability (open vial, 2 weeks) ([2]; 80° C./75% RH, listed as HCl salt): not stable; Physical stability (open vial, 2 weeks) ([2]; 80° C., listed as HCl salt): physically stable; water uptake at 40% RH, Cycle 2 sorption isotherm ([3]; DVS, 25° C.): 4.89%
